System: LG0567-F671-PDC multi-cell spheroid viability
Assay: Anticancer human tumor LG0567-F671-PDC patient-derived lung adenocarcinoma cell line growth inhibition [IpAb]
Settings: for IC50: curve of first compound; for viability, T/C: stronger effect = lower value
Summary of the method: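 Multi-cell spheroids of 60% tumour cells, 25% HUVEC and 15% MSC in ultra-low-attachment U-bottom wells, treated with agents combined with ipatasertib or abemaciclib. Half-log ranges top out near clinical Cmax, or 10 microM when Cmax is unknown.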

[1] = second compound 0.01 µM, first compound 0.0316 µM
[2] = second compound 0.01 µM, first compound 0.1 µM
[3] = second compound 0.01 µM, first compound 0.316 µM
[4] = second compound 0.01 µM, first compound 1 µM
[5] = second compound 0.0316 µM, first compound 0.0316 µM
[6] = second compound 0.0316 µM, first compound 0.1 µM
[7] = second compound 0.0316 µM, first compound 0.316 µM
[8] = second compound 0.0316 µM, first compound 1 µM
[9] = second compound 0.1 µM, first compound 0.0316 µM
[10] = second compound 0.1 µM, first compound 0.1 µM
[11] = second compound 0.1 µM, first compound 0.316 µM
[12] = second compound 0.1 µM, first compound 1 µM
[13] = second compound 0.316 µM, first compound 0.0316 µM
[14] = second compound 0.316 µM, first compound 0.1 µM
[15] = second compound 0.316 µM, first compound 0.316 µM
[16] = second compound 0.316 µM, first compound 1 µM
[17] = second compound 1 µM, first compound 0.0316 µM
[18] = second compound 1 µM, first compound 0.1 µM
[19] = second compound 1 µM, first compound 0.316 µM
[20] = second compound 1 µM, first compound 1 µM
[21] = second compound 0.01 µM, first compound 3.16 µM
[22] = second compound 0.01 µM, first compound 10 µM
[23] = second compound 0.0316 µM, first compound 3.16 µM
[24] = second compound 0.0316 µM, first compound 10 µM
[25] = second compound 0.1 µM, first compound 3.16 µM
[26] = second compound 0.1 µM, first compound 10 µM
[27] = second compound 0.316 µM, first compound 3.16 µM
[28] = second compound 0.316 µM, first compound 10 µM
[29] = second compound 1 µM, first compound 3.16 µM
[30] = second compound 1 µM, first compound 10 µM
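Also: viability read after 7 days of drug exposure.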
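For viability, T/C in this document: 100% = DMSO vehicle control luminescence.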

Row | SMILES | IC50 (second compound 0.01 µM) | IC50 (second compound 0.0316 µM) | IC50 (second compound 0.1 µM) | IC50 (second compound 0.316 µM) | IC50 (second compound 1 µM) | viability, T/C [1] | viability, T/C [2] | viability, T/C [3] | viability, T/C [4] | viability, T/C [5] | viability, T/C [6] | viability, T/C [7] | viability, T/C [8] | viability, T/C [9] | viability, T/C [10] | viability, T/C [11] | viability, T/C [12] | viability, T/C [13] | viability, T/C [14] | viability, T/C [15] | also measured
1 | COc1c(OCCCN2CCOCC2)ccc2c3n(c(=NC(=O)c4cnc(N)nc4)nc12)CCN3 + CCN1CCN(Cc2ccc(Nc3ncc(F)c(-c4cc(F)c5nc(C)n(C(C)C)c5c4)n3)nc2)CC1 | 0.0765 µM | 0.0609 µM | 0.06 µM | 0.0228 µM | 0.0734 µM | 77.5% | 41.6% | 36.5% | 31.8% | 60.5% | 43.1% | 34.5% | 17.6% | 62.5% | 40.4% | 32.5% | 26.6% | 41.6% | 33.2% | 31.5% | viability, T/C (second compound 0.01 µM, first compound 0.00316 µM): 85.5%; viability, T/C (second compound 0.01 µM, first compound 0.01 µM): 72.7%; viability, T/C (second compound 0.0316 µM, first compound 0.00316 µM): 105%; viability, T/C (second compound 0.0316 µM, first compound 0.01 µM): 74.6%; viability, T/C (second compound 0.1 µM, first compound 0.00316 µM): 73%; viability, T/C (second compound 0.1 µM, first compound 0.01 µM): 63.4%; viability, T/C (second compound 0.316 µM, first compound 0.00316 µM): 67.8%; viability, T/C (second compound 0.316 µM, first compound 0.01 µM): 74.2%; viability, T/C [16]: 20.5%; viability, T/C (second compound 1 µM, first compound 0.00316 µM): 69.7%; viability, T/C (second compound 1 µM, first compound 0.01 µM): 71.1%; viability, T/C [17]: 56%; viability, T/C [18]: 43.2%; viability, T/C [19]: 40.8%; viability, T/C [20]: 25.1%
2 | Cc1nc(NC(=O)N2CCCC2C(N)=O)sc1-c1ccnc(C(C)(C)C(F)(F)F)c1 (stereo not given) + CCN1CCN(Cc2ccc(Nc3ncc(F)c(-c4cc(F)c5nc(C)n(C(C)C)c5c4)n3)nc2)CC1 | 1.08 µM | 0.658 µM | 0.387 µM | 0.181 µM | 0.481 µM | 80.2% | 66.6% | 56% | 54.3% | 51.6% | 75.1% | 57.4% | 44.6% | 57.4% | 56.8% | 49.2% | 46% | 55.5% | 48.1% | 53.5% | viability, T/C [21]: 43.5%; viability, T/C [22]: 32.4%; viability, T/C [23]: 41.1%; viability, T/C [24]: 33.7%; viability, T/C [25]: 34.6%; viability, T/C [26]: 27.5%; viability, T/C [16]: 41.1%; viability, T/C [27]: 35.5%; viability, T/C [28]: 29.6%; viability, T/C [17]: 49.5%; viability, T/C [18]: 63.5%; viability, T/C [19]: 55.4%; viability, T/C [20]: 40.5%; viability, T/C [29]: 42.5%; viability, T/C [30]: 38.3%
3 | Cn1nccc1Nc1nccc(-c2ccn(C(CO)c3ccc(Cl)c(F)c3)c(=O)c2)n1 (stereo not given) + CCN1CCN(Cc2ccc(Nc3ncc(F)c(-c4cc(F)c5nc(C)n(C(C)C)c5c4)n3)nc2)CC1 | 0.121 µM | 0.131 µM | 0.0873 µM | < 0.0316 µM | < 0.0316 µM | 77.9% | 47.2% | 46.7% | 31.2% | 60.9% | 48.9% | 45.9% | 28% | 57.1% | 48.3% | 40.5% | 28.1% | 49.7% | 46.4% | 37.1% | viability, T/C [21]: 26.9%; viability, T/C [22]: 29.6%; viability, T/C [23]: 26.2%; viability, T/C [24]: 24.9%; viability, T/C [25]: 31.2%; viability, T/C [26]: 24.9%; viability, T/C [16]: 34%; viability, T/C [27]: 24.6%; viability, T/C [28]: 28.5%; viability, T/C [17]: 42.8%; viability, T/C [18]: 50%; viability, T/C [19]: 40.3%; viability, T/C [20]: 29.3%; viability, T/C [29]: 25.5%; viability, T/C [30]: 23.1%

From PubChem BioAssay AID2060332 (Molecular Pharmacology Branch, DTP, NCI, 2025)
